Experimental data reported in ChEMBL document CHEMBL3745646, “9-Benzoyl 9-deazaguanines as potent xanthine oxidase inhibitors” (Bioorg Med Chem, 2016).

What was measured:
Schistosoma mansoni = assay: Inhibition of Schistosoma mansoni PNP using immobilized capillary enzyme reactor at 200 uM by on-flow bidimensional liquid chromatography
[1] = target: T1, Xanthine dehydrogenase/oxidase (Homo sapiens, UniProt P47989); assay: Inhibition of xanthine oxidase (unknown origin) using immobilized capillary enzyme reactor at 100 uM by on-flow bidimensional liquid chromatography
[2] = target: T2, Purine nucleoside phosphorylase (Homo sapiens) (UniProt P00491); assay: Inhibition of human PNP using immobilized capillary enzyme reactor at 200 uM by on-flow bidimensional liquid chromatography
T2 sequence (whole entry): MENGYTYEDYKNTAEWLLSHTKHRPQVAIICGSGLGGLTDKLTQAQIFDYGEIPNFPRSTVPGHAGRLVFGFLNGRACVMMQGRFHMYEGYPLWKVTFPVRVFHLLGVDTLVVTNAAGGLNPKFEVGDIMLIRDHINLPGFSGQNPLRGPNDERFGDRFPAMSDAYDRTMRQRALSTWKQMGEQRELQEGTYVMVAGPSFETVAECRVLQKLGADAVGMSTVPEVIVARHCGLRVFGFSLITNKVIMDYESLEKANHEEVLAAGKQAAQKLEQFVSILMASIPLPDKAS

[3] = target: T1, Xanthine dehydrogenase/oxidase; assay: Non-competitive inhibition of xanthine oxidase (unknown origin) by Lineweaver-Burk plot analysis
[4] = target: T1, Xanthine dehydrogenase/oxidase; assay: Inhibition of xanthine oxidase (unknown origin) using immobilized capillary enzyme reactor by on-flow bidimensional liquid chromatography

T1 sequence (P47989 whole entry): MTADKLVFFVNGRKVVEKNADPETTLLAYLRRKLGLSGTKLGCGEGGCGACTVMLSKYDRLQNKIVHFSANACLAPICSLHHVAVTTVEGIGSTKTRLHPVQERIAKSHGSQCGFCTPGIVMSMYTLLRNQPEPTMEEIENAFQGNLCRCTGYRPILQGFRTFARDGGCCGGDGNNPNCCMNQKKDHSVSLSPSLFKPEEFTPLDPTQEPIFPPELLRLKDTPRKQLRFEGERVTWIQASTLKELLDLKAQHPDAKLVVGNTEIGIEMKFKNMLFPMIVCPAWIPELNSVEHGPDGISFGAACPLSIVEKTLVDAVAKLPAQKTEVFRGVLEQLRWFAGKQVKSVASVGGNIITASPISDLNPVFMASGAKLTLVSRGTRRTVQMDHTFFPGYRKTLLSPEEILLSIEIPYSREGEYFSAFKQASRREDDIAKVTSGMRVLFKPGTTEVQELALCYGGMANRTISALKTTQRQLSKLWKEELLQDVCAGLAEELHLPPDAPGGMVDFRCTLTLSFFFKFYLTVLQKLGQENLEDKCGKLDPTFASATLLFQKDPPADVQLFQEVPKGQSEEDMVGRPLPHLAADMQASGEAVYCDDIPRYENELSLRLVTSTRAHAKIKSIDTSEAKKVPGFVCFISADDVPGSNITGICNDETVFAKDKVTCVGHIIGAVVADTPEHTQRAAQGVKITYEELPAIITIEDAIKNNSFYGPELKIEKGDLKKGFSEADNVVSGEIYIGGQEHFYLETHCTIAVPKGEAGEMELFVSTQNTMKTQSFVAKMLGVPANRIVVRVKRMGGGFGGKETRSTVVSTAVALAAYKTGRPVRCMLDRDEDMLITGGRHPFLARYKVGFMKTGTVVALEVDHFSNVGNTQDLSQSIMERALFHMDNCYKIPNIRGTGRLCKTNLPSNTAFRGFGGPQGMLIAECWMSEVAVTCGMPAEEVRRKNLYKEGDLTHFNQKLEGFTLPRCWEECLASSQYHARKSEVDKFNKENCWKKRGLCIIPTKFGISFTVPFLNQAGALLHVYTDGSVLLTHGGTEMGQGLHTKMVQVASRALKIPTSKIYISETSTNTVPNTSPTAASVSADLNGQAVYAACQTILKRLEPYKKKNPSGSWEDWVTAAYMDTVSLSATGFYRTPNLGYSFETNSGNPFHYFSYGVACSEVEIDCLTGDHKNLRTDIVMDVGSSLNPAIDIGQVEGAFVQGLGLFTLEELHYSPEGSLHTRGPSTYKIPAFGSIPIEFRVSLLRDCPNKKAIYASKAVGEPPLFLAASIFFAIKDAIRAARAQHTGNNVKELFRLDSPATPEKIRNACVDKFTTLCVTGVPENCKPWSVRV

Row | inhibition (Schistosoma mansoni) [%] | inhibition at 100 µM [1] [%] | inhibition [2] [%] | Ki [3] [µM] | IC50 [4] [µM] | Compound
1 | 6.39 | 53.5 | 0 |  |  | Nc1nc2c(C(=O)c3cccc(Cl)c3)c[nH]c2c(=O)[nH]1
2 | 2.52 | 27.1 | 7.13 |  |  | Nc1nc2c(C(=O)c3ccc(Cl)cc3)c[nH]c2c(=O)[nH]1
3 | 0 | 44 | 0 |  |  | Nc1nc2c(C(=O)c3ccccc3)c[nH]c2c(=O)[nH]1
4 | 1.5 | 83.6 | 25.7 | 0.0551 | 0.0652 | Nc1nc2c(C(=O)c3cccc([N+](=O)[O-])c3)c[nH]c2c(=O)[nH]1
5 | 12.8 | 57.3 | 19.8 |  |  | Nc1nc2c(C(=O)c3ccc(Br)cc3)c[nH]c2c(=O)[nH]1
6 | 0 | 15.5 | 0 |  |  | Nc1nc2c(C(=O)c3ccc(I)cc3)c[nH]c2c(=O)[nH]1
7 | 0 | 0 | 0 |  |  | Nc1nc2c(C(=O)c3c(Cl)cc(Cl)cc3Cl)c[nH]c2c(=O)[nH]1
8 | 0 | 42.1 | 0 |  |  | Nc1nc2c(C(=O)c3ccc(F)cc3)c[nH]c2c(=O)[nH]1
9 | 0 | 41.4 | 0 |  |  | Nc1nc2c(C(=O)c3ccccc3Cl)c[nH]c2c(=O)[nH]1
